Measured values published in PMC9743092, “Membrane-Active Cyclic Amphiphilic Peptides: Broad-Spectrum Antibacterial Activity Alone and in Combination with Antibiotics” (Journal of Medicinal Chemistry, 2022).
Values after ≈ are worked out from the molar mass of the structure shown. Like-named read-outs stand apart in the source and are kept apart here. Peptide text beside a SMILES is read from it.

What was measured:
E. coli (ATCC 25922) [1] = system: E. coli (ATCC 25922); set-up: MIC E. coli: unit not given beside the values; conditions: supplementary csv, unit not given
MRSA (ATCC BAA-1556) [2] = system: MRSA (ATCC BAA-1556); set-up: MIC MRSA: unit not given beside the values; conditions: supplementary csv, unit not given
[3] = system: K. pneumoniae (ATCC BAA-1705); conditions: for MIC K. pneumoniae: supplementary csv, unit not given; for MIC K. pneumoniae (ATCC BAA-1705): antibiotic alone or physical mixture with peptide (1:1 w/w)
[4] = system: P. aeruginosa (ATCC 27883); set-up: MIC P. aeruginosa: unit not given beside the values; conditions: for MIC P. aeruginosa: supplementary csv, unit not given
[5] = system: human red blood cells (hRBCs); conditions: red cells of human, 2 h
[6] = system: P. aeruginosa (ATCC 27883); assay: Synergistic checkerboard assay; type: cell-based; conditions: Pseudomonas aeruginosa
[7] = system: K. pneumoniae (ATCC BAA-1705); assay: Synergistic checkerboard assay; conditions: for MIC: Klebsiella pneumoniae, ATCCBAA1705, read-out: MIC antibiotic alone
E. coli (ATCC 25922) [8] = assay: Synergistic checkerboard assay; type: cell-based; conditions: Escherichia coli
MRSA (ATCC BAA-1556) [9] = assay: microbe, parasite or virus in culture; conditions: Staphylococcus aureus
[10] = system: P. aeruginosa (ATCC 27883); assay: microbe, parasite or virus in culture; conditions: Pseudomonas aeruginosa, ATCC27883, read-out: MIC P. aeruginosa (ATCC 27883)
[11] = system: S. aureus (ATCC BAA-1556); assay: Synergistic checkerboard assay; type: cell-based; conditions: Staphylococcus aureus
E. coli (ATCC 25922) [12] = assay: microbe, parasite or virus in culture; conditions: Escherichia coli
[13] = system: K. pneumoniae (ATCC BAA-1705); assay: microbe, parasite or virus in culture; conditions: Klebsiella pneumoniae
[14] = ATCC27883, checkerboard, read-out: MIC antibiotic alone
[15] = ATCC27883, read-out: MIC antibiotic alone
[16] = ATCC25922, read-out: MIC antibiotic alone
[17] = read-out: MIC S. aureus (ATCC BAA-1556)
[18] = ATCCBAA1556, checkerboard, read-out: MIC antibiotic alone
[19] = ATCC25922, read-out: MIC E. coli (ATCC 25922)
[20] = ATCC25922, checkerboard, read-out: MIC antibiotic alone
[21] = ATCCBAA1705, read-out: MIC K. pneumoniae (ATCC BAA-1705)

MIC E. coli (E. coli (ATCC 25922) [1])	MIC MRSA (MRSA (ATCC BAA-1556) [2])	MIC K. pneumoniae [3]	MIC P. aeruginosa [4]	HC50 [5] [µg/mL]	Structure (SMILES)	MIC [6, 14] [µg/mL]	MIC [7] [µg/mL]	MIC (MRSA (ATCC BAA-1556) [9]; [17]) [µg/mL]	MIC [10] [µg/mL]	also measured
128	256	256	>256	60	N=C(N)NCCC[C@@H]1NC(=O)[C@H](CCCNC(=N)N)NC(=O)[C@H](CCCNC(=N)N)NC(=O)[C@H](Cc2c[nH]c3ccccc23)NC(=O)[C@H](Cc2c[nH]c3ccccc23)NC(=O)[C@H](Cc2c[nH]c3ccccc23)NC(=O)[C@H](Cc2c[nH]c3ccccc23)NC(=O)[C@H](Cc2c[nH]c3ccccc23)NC(=O)[C@H](Cc2c[nH]c3ccccc23)NC(=O)[C@H](Cc2c[nH]c3ccccc23)NC(=O)[C@H](CCCNC(=N)N)NC1=O [4d, [R4W7]] (cyclo(RRRRWWWWWWW))					
>256	>256	>256	>256	140	N=C(N)NCCC[C@@H]1NC(=O)[C@H](CCCNC(=N)N)NC(=O)[C@H](CCCNC(=N)N)NC(=O)[C@H](Cc2c[nH]c3ccccc23)NC(=O)[C@H](Cc2c[nH]c3ccccc23)NC(=O)[C@H](Cc2c[nH]c3ccccc23)NC(=O)[C@H](Cc2c[nH]c3ccccc23)NC(=O)[C@H](Cc2c[nH]c3ccccc23)NC(=O)[C@H](Cc2c[nH]c3ccccc23)NC(=O)[C@H](CCCNC(=N)N)NC(=O)[C@H](CCCNC(=N)N)NC1=O [5c, [R5W6]] (cyclo(RRRRRWWWWWW))					
>256	>256	>256	>256	115	N=C(N)NCCC[C@@H]1NC(=O)[C@H](CCCNC(=N)N)NC(=O)[C@H](CCCNC(=N)N)NC(=O)[C@H](Cc2c[nH]c3ccccc23)NC(=O)[C@H](Cc2c[nH]c3ccccc23)NC(=O)[C@H](Cc2c[nH]c3ccccc23)NC(=O)[C@H](Cc2c[nH]c3ccccc23)NC(=O)[C@H](Cc2c[nH]c3ccccc23)NC(=O)[C@H](Cc2c[nH]c3ccccc23)NC(=O)[C@H](Cc2c[nH]c3ccccc23)NC(=O)[C@H](CCCNC(=N)N)NC(=O)[C@H](CCCNC(=N)N)NC1=O [5d, [R5W7]] (cyclo(RRRRRWWWWWWW))					
64	16	64	128	170	N=C(N)NCCC[C@@H]1NC(=O)[C@H](CCCNC(=N)N)NC(=O)[C@H](CCCNC(=N)N)NC(=O)[C@H](CCCNC(=N)N)NC(=O)[C@H](Cc2c[nH]c3ccccc23)NC(=O)[C@H](Cc2c[nH]c3ccccc23)NC(=O)[C@H](Cc2c[nH]c3ccccc23)NC(=O)[C@H](Cc2c[nH]c3ccccc23)NC(=O)[C@H](Cc2c[nH]c3ccccc23)NC(=O)[C@H](Cc2c[nH]c3ccccc23)NC(=O)[C@H](CCCNC(=N)N)NC(=O)[C@H](CCCNC(=N)N)NC1=O [6c, [R6W6]] (cyclo(RRRRRRWWWWWW))					
128	64	256	>256	85	N=C(N)NCCC[C@@H]1NC(=O)[C@H](CCCNC(=N)N)NC(=O)[C@H](CCCNC(=N)N)NC(=O)[C@H](CCCNC(=N)N)NC(=O)[C@H](Cc2c[nH]c3ccccc23)NC(=O)[C@H](Cc2c[nH]c3ccccc23)NC(=O)[C@H](Cc2c[nH]c3ccccc23)NC(=O)[C@H](Cc2c[nH]c3ccccc23)NC(=O)[C@H](Cc2c[nH]c3ccccc23)NC(=O)[C@H](Cc2c[nH]c3ccccc23)NC(=O)[C@H](Cc2c[nH]c3ccccc23)NC(=O)[C@H](CCCNC(=N)N)NC(=O)[C@H](CCCNC(=N)N)NC1=O [6d, [R6W7]] (cyclo(RRRRRRWWWWWWW))					
					CCC[C@@H]1C[C@@H](C(=O)N[C@@H]([C@H]2O[C@H](SC)[C@H](O)[C@@H](O)[C@H]2O)[C@H](C)Cl)N(C)C1 [clindamycin]	512	512			MIC antibiotic alone ([7]; checkerboard): 512 µg/mL; MIC K. pneumoniae (ATCC BAA-1705) [3]: 512 µg/mL (≈ 1200 µM); MIC P. aeruginosa (ATCC 27883) ([4]; antibiotic alone or physical mixture with peptide (1:1 w/w)): 512 µg/mL (≈ 1200 µM)
					C[C@H]1COc2c(N3CCN(C)CC3)c(F)cc3c(=O)c(C(=O)O)cn1c23.C[C@H]1COc2c(N3CCN(C)CC3)c(F)cc3c(=O)c(C(=O)O)cn1c23.O [levofloxacin]		64			MIC [6, 15]: 1 µg/mL; MIC (E. coli (ATCC 25922) [8]; [16]): 64 µg/mL
					Cc1ncc([N+](=O)[O-])n1CCO [metronidazole]	32	256	32 (≈ 187 µM)	32 (≈ 187 µM)	MIC K. pneumoniae (ATCC BAA-1705) [3]: 256 µg/mL (≈ 1500 µM); MIC [11, 18]: 32 µg/mL
					CN(C)[C@@H]1C(O)=C(C(N)=O)C(=O)[C@@]2(O)C(O)=C3C(=O)c4c(O)cccc4[C@@](C)(O)[C@H]3C[C@@H]12 [tetracycline]	32	[…]	0.25 (≈ 0.563 µM)	32 (≈ 72 µM)	MIC (E. coli (ATCC 25922) [12]; [19]): 8 µg/mL (≈ 18 µM); MIC (E. coli (ATCC 25922) [8]; [20]): 8 µg/mL; MIC [11, 18]: 0.25 µg/mL; MIC [13, 21]: […]
					NC[C@H]1O[C@H](O[C@H]2[C@H](O)[C@@H](O[C@H]3O[C@H](CO)[C@@H](O)[C@H](N)[C@H]3O)[C@H](N)C[C@@H]2N)[C@H](N)C[C@@H]1O [tobramycin]	0.5	16	0.5 (≈ 1.07 µM)	0.5 (≈ 1.07 µM)	MIC (E. coli (ATCC 25922) [12]; [19]): 8 µg/mL (≈ 17.1 µM); MIC (E. coli (ATCC 25922) [8]; [20]): 8 µg/mL; MIC [11, 18]: 0.5 µg/mL; MIC [13, 21]: 16 µg/mL (≈ 34.2 µM)
					CN[C@H](CC(C)C)C(=O)N[C@H]1C(=O)N[C@@H](CC(N)=O)C(=O)N[C@H]2C(=O)N[C@H]3C(=O)N[C@H](C(=O)N[C@H](C(=O)O)c4cc(O)cc(O)c4-c4cc3ccc4O)[C@H](O)c3ccc(c(Cl)c3)Oc3cc2cc(c3O[C@@H]2O[C@H](CO)[C@@H](O)[C@H](O)[C@H]2O[C@H]2C[C@](C)(N)[C@H](O)[C@H](C)O2)Oc2ccc(cc2Cl)[C@H]1O [vancomycin]		512	1 (≈ 0.69 µM)	256 (≈ 177 µM)	MIC [6, 15]: 256 µg/mL; MIC (E. coli (ATCC 25922) [12]; ATCC25922, 24 h, read-out: MIC E. coli (ATCC 25922)): 256 µg/mL (≈ 177 µM); MIC (E. coli (ATCC 25922) [12]; [19]): 256 µg/mL (≈ 177 µM); MIC (E. coli (ATCC 25922) [8]; [16]): 256 µg/mL; MIC (MRSA (ATCC BAA-1556) [9]; read-out: MIC MRSA (ATCC BAA-1556)): 1 µg/mL (≈ 0.69 µM); MIC ([11]; ATCCBAA1556, read-out: MIC antibiotic alone): 1 µg/mL; MIC ([13]; ATCCBAA1705, 24 h, read-out: MIC K. pneumoniae (ATCC BAA-1705)): 512 µg/mL (≈ 353 µM); MIC [13, 21]: 512 µg/mL (≈ 353 µM)

Structure (SMILES)	MIC E. coli (E. coli (ATCC 25922) [1])	MIC MRSA (MRSA (ATCC BAA-1556) [2])	MIC K. pneumoniae [3]	MIC P. aeruginosa [4]	HC50 [5] [µg/mL]	MIC [6, 14] [µg/mL]	MIC [7] [µg/mL]	MIC (MRSA (ATCC BAA-1556) [9]; [17]) [µg/mL]	MIC [10] [µg/mL]	also measured
N=C(N)NCCC[C@@H]1NC(=O)[C@H](CCCNC(=N)N)NC(=O)[C@H](CCCNC(=N)N)NC(=O)[C@H](Cc2c[nH]c3ccccc23)NC(=O)[C@H](Cc2c[nH]c3ccccc23)NC(=O)[C@H](Cc2c[nH]c3ccccc23)NC(=O)[C@H](Cc2c[nH]c3ccccc23)NC(=O)[C@H](Cc2c[nH]c3ccccc23)NC(=O)[C@H](Cc2c[nH]c3ccccc23)NC(=O)[C@H](CCCNC(=N)N)NC1=O [4c, [R4W6]]	128	128	256	128	75					
N=C(N)NCCC[C@@H]1NC(=O)[C@H](CCCNC(=N)N)NC(=O)[C@H](CCCNC(=N)N)NC(=O)[C@H](CCCNC(=N)N)NC(=O)[C@H](Cc2c[nH]c3ccccc23)NC(=O)[C@H](Cc2c[nH]c3ccccc23)NC(=O)[C@H](Cc2c[nH]c3ccccc23)NC(=O)[C@H](Cc2c[nH]c3ccccc23)NC(=O)[C@H](CCCNC(=N)N)NC(=O)[C@H](CCCNC(=N)N)NC(=O)[C@H](CCCNC(=N)N)NC1=O [7a, [R7W4]] (cyclo(RRRRRRRWWWW))	32	16	64	32	190					
